Values quoted from earlier work as cited in patent US20160174564A1, “BIOCIDE-FREE PREWETTED SPONGE CLOTH” (Kalle GmbH, priority 2014, published 2016).

Details: saturated solutions of different salts; 20° C.

Row | SMILES | aw value
1 | [Cl-].[Cl-].[Mg+2] [MgCl2] | 0.327
2 | [Cl-].[K+] [KCl] | 0.843
3 | [Cl-].[Cl-].[Sr+2] [SrCl2] | 0.708
4 | O=[N+]([O-])[O-].O=[N+]([O-])[O-].[Mg+2] [Mg(NO3)2] | 0.529
5 | O=C([O-])[O-].[K+].[K+] [Sample K2CO3, K2CO3] | 0.438
6 | [Cl-].[Li+] [LiCl] | 0.112
7 | [Br-].[Na+] [NaBr] | 0.577
8 | [Cl-].[Na+] [NaCl] | 0.753
